Assay results published in patent US10969389B2, “Method to monitor and quantify interphase nuclear envelope rupture events” (INSTITUT CURIE, priority 2016, dated 2021).

Test system: RPE1 cells
Test: Cell death after passing a constriction in micro-channels, with DNA repair inhibited by ATMi
Type: cell-based
Details: ATMi 10 μM
Description: Micro-channels were prepared as previously described (Heuzé M L et al, 2011, 769, pp. 415-434). Briefly, polydimethylsiloxane (PDMS) (GE Silicones) was used to prepare 7 μm wide and 5 μm high micro-channels with constrictions of varying lengths and widths from a self-made mold. For HeLa cells, larger channels of 12 μm width and 5 μm height were used because of their larger nuclei. Channels with constrictions were incubated with 15 μg/mL of fibronectin for 30 min then washed with PBS at least 3 times and finally incubated with medium (containing drugs if necessary) for at least 5 hours before adding cells. Not that the height inside constriction varied depending on the width: height was 2 μm for 1.5 μm wide constrictions, 3.5 μm for 2 μm wide constrictions, 4 μm for 3 μm and 4 μm wide constrictions, and 5 μm for 5 μm wide constrictions.
siRNA 5′-AAAGCAUGGACGAUCAGGAAG-3′ (SEQ ID NO: 6) was used to deplete CHMP3 (Jimenez Science 2014), SMARTpool for SUN1 and SUN2 (Dharmacon, GE LifeSciences), both 5′-GGUGGUGACGAUCUGGGCU-3′ (SEQ ID NO: 7); and 5′-[…]-3′(SEQ ID NO: 8) to target LMNA. Non-targeting siRNA (Dharmacon, GE Life Technologies) was used as the control. siRNA was transfected with Lipofectamine RNAiMAX (Invitrogen). Cells were transfected with 120 nM siRNA 48 h and again 24 h before the experiment.
For immunofluorescence, secondary antibodies anti-mouse-Alexa488 and anti-Goat-Alexa488 (Jackson ImmunoResearch Laboratories) were used. ATMi (KU-55933, TOCRIS) was used at 10 μM to inhibit DNA repair.
The inventors hypothesized that efficient resealing was responsible for the high survival rate of cells passing through constrictions. The inventors thus quantified the occurrence of cell death after passage through a single constriction in RPE1 cells either depleted for LMNA/C, or for CHMP3. As expected from previous work by others, the inventors found a dramatic increase in death in LMNA/C-depleted cells (FIG. 4A), even inside straight channels, but stronger when cells were passing constrictions where the NE ruptured for longer periods of time.
The inventors therefore hypothesized that the cell death observed upon migration through constrictions in LMNA/C-depleted cells could be caused by a defect in DNA repair combined with a high degree of DNA damage due to prolonged nuclear envelope opening. To test this hypothesis, the inventors inhibited DNA repair using an ATM inhibitor (ATMi, Fig S4E; 22), in control cells and in cells depleted for LMNA/C, or CHMP3.

## O=c1cc(-c2cccc3c2Sc2ccccc2S3)oc(N2CCOCC2)c1 [ATMi, KU-55933]
CHMP3-depleted RPE1 cells migrating through constrictions
  level of cell death: about 30%
CHMP3-depleted RPE1 cells that did not migrate through constrictions
  level of cell death: no effect
LMNA/C-depleted RPE1 cells
  level of cell death: further increased
Control RPE1 cells
  level of cell death: no effect
